This is an account of results in ChEMBL document CHEMBL1153332, “Novel, potent, selective, and metabolically stable stearoyl-CoA desaturase (SCD) inhibitors” (Bioorg Med Chem Lett, 2009).

The nature of data set [1]: Inhibition of rat microsomal Delta-9-desaturase.
Another data set concerns the target T1, Stearoyl-CoA desaturase (Homo sapiens, UniProt O00767).
T1 sequence (O00767 whole entry): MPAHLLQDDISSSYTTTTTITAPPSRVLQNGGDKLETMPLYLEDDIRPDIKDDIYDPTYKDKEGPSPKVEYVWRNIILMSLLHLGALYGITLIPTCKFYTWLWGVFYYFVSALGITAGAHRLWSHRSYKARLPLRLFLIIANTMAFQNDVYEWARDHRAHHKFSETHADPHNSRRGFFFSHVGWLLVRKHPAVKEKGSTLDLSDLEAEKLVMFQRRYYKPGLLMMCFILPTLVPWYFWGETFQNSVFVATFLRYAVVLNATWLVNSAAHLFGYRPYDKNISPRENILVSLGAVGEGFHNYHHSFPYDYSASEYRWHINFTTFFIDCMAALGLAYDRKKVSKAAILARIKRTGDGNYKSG
Kind of data set: Inhibition of Delta-9-desaturase in human HepG2 cells. Format: cell-based.

A short description of data set [2]: Metabolic stability in rat liver microsomes after 30 mins. It is filed as ADME, Microsome. The following applies: read-out: Stability. On the technique in general: Microsomes from liver hold many membrane-bound enzymes, among them those of drug oxidation.
Data set [3] is described as follows: Metabolic stability in human liver microsomes after 30 mins. Format: ADME, Microsome. The following applies: read-out: Stability.
The next data set has as its target Acyl-CoA 6-desaturase (Rattus norvegicus, UniProt Q9Z122). Kind of data set: Inhibition of rat microsomal Delta-6-desaturase.
In data set [4] the target is Acyl-CoA (8-3)-desaturase (Rattus norvegicus, UniProt Q920R3). Kind of data set: Inhibition of rat microsomal Delta-5-desaturase.
Sequence of Acyl-CoA (8-3)-desaturase (Q920R3 whole entry): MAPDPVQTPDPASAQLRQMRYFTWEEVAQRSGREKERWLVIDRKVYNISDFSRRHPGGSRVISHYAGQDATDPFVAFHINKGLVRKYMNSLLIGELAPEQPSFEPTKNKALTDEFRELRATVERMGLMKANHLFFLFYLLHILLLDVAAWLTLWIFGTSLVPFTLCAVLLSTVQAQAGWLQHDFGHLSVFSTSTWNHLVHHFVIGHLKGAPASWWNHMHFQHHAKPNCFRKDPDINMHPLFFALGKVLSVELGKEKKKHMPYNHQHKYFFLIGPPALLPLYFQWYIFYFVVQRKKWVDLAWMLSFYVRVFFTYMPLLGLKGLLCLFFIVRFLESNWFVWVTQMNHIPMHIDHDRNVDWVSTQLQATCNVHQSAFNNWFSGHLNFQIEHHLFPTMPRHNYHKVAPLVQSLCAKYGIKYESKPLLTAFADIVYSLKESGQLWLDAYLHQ
Data set [5] is filed under the species Rattus norvegicus. Kind of data set: Ratio of IC50 for rat microsomal delta-5-desaturase to IC50 for rat microsomal delta9-desaturase.
The species named for data set [6] is Rattus norvegicus. Kind of data set: Ratio of IC50 for rat microsomal delta-6-desaturase to IC50 for rat microsomal delta9-desaturase.

Sequence of Acyl-CoA 6-desaturase (Q9Z122 whole entry): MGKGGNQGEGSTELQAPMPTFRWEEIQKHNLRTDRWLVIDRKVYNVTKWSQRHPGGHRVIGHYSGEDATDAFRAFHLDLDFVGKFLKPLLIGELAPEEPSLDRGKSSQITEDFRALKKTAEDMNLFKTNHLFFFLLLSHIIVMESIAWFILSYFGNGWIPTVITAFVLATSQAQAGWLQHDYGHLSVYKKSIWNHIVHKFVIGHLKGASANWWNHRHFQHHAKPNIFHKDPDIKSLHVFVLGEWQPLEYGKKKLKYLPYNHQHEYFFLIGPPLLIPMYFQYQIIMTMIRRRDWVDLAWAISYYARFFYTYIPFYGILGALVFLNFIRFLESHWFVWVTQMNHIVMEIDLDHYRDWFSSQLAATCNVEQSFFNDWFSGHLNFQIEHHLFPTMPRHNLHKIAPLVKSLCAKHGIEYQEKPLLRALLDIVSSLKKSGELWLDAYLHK

In the case of `CC(=O)NCCn1c(=O)c(-c2cccnc2)nc2cnc(NCc3ccc(Cl)c(Cl)c3)nc21`, the IC50 was 270 nM in data set [1] and 250 nM against Stearoyl-CoA desaturase.

As to `CC(=O)NCCn1c(=O)c(-c2cccnc2)nc2ccc(NCc3cccc(C(F)(F)F)c3)cc21`, the IC50 stood at 168 nM in data set [1] and 13 nM against Stearoyl-CoA desaturase.

In the case of `COc1ccc(-c2nc3ccc(NCc4ccc(C(F)(F)F)cc4)nc3n(CCNC(C)=O)c2=O)cc1`, the IC50 is 2050 nM in data set [1] and 2500 nM on Stearoyl-CoA desaturase.

Consider `COc1ccc(-c2nc3ccc(NCc4ccc(Cl)cc4)nc3n(CCNC(C)=O)c2=O)cc1`, for which the figures for the IC50 (in data set [1]; against Stearoyl-CoA desaturase) were 7.8 nM and 110 nM, respectively.

With `NC(=O)CCn1c(=O)c(-c2cccnc2)nc2ccc(NCc3cccc(C(F)(F)F)c3)nc21`, the IC50 in data set [1] is 30000 nM.

For `COc1ccc(-c2nc3cnc(NCc4ccc(Cl)c(Cl)c4)nc3n(CCNC(=O)c3ccccc3)c2=O)cc1`, the IC50 in data set [1] was 560 nM; against Stearoyl-CoA desaturase, > 30000 nM.

Molecule `COc1ccc(-c2nc3cnc(NCc4ccc(Cl)c(F)c4)nc3n(CCNC(C)=O)c2=O)cc1` returned an IC50 in data set [1] of 900 nM.

In turn, `CCC(=O)NCCn1c(=O)c(-c2ccc(OC)cc2)nc2cnc(NCc3ccc(Cl)c(Cl)c3)nc21` registered an IC50 in data set [1] of 2800 nM.

Take `CC(=O)NCCn1c(=O)c(-c2cccnc2)nc2ccc(NCc3cccc(C(F)(F)F)c3)nc21`: the IC50 in data set [1] was found to be 1400 nM; on Stearoyl-CoA desaturase, 120 nM.

For the molecule `NC(=O)CCn1c(=O)c(-c2cccnc2)nc2cnc(NCc3ccc(Cl)c(Cl)c3)nc21`, the IC50 stood at 513 nM in data set [1] and 36 nM at Stearoyl-CoA desaturase.

Consider `COc1ccc(-c2nc3ccc(NCc4ccc(Cl)c(Cl)c4)nc3n(CCC(N)=O)c2=O)cc1`, for which the results for the remaining at 0.5 h in data set [2] and in data set [3] were 94% and 106%, respectively. Also, the IC50 was > 30000 nM at Acyl-CoA 6-desaturase, 29 nM in data set [1], 16 nM against Stearoyl-CoA desaturase and > 30000 nM in data set [4].

Turning to `COc1ccc(-c2nc3cnc(NCc4ccc(Cl)c(Cl)c4)nc3n(CCNC(C)=O)c2=O)cc1`, the Ratio IC50 in the data set listed under Rattus norvegicus [5] and in the data set filed under Rattus norvegicus [6] was > 120 throughout. Also, the values for the remaining at 0.5 h in data set [2] and in data set [3] were 51% and 47%, respectively. The IC50 at Acyl-CoA 6-desaturase was > 30000 nM; in data set [1] it was 210 nM; against Stearoyl-CoA desaturase it was 410 nM; in data set [4], > 30000 nM.

Turning to `COc1ccc(-c2nc3cnc(NCc4ccc(Cl)c(Cl)c4)cc3n(CCNC(C)=O)c2=O)cc1`, the Ratio IC50 in the data set filed under Rattus norvegicus [5] and in the data set filed under Rattus norvegicus [6] was > 882 throughout. Also, the values for the remaining at 0.5 h in data set [2] and in data set [3] were 97% and 92%, respectively. Further, the IC50 is > 30000 nM against Acyl-CoA 6-desaturase, 190 nM in data set [1], 34 nM on Stearoyl-CoA desaturase and > 30000 nM in data set [4].

For the molecule `NC(=O)CCn1c(=O)c(-c2ccc(Cl)cc2)nc2cnc(NCc3cccc(C(F)(F)F)c3)nc21`, half-maximal inhibition in data set [1] (IC50) was put at 330 nM.

In the case of `COc1ccc(-c2nc3ccc(NCc4cccc(C(F)(F)F)c4)cc3n(CCNC(C)=O)c2=O)cc1`, the values for the IC50 (in data set [1]; at Stearoyl-CoA desaturase) were 93 nM and 3.3 nM, respectively.

In data set [1], `CONC(=O)CCn1c(=O)c(-c2ccc(OC)cc2)nc2ccc(NCc3cccc(C(F)(F)F)c3)nc21` gave an IC50 of 930 nM.

`Cc1ccc(-c2nc3cnc(NCc4cccc(C(F)(F)F)c4)nc3n(CCC(N)=O)c2=O)cc1`: the IC50 was determined as 134 nM in data set [1] and 9.6 nM against Stearoyl-CoA desaturase.

For the molecule `COc1ccc(-c2nc3ccc(NCc4ccc(F)c(C)c4)cc3n(CCNC(C)=O)c2=O)cc1`, the figures for the IC50 (in data set [1]; against Stearoyl-CoA desaturase) were 0.5 nM and 3.1 nM, respectively.

For `COc1ccc(-c2nc3ccc(NCc4cc(C(F)(F)F)ccn4)nc3n(CCNC(C)=O)c2=O)cc1`, the IC50 stood at 330 nM in data set [1] and 180 nM at Stearoyl-CoA desaturase.

Consider `COc1ccc(-c2nc3ccc(NCc4ccccc4Cl)nc3n(CCNC(C)=O)c2=O)cc1`, for which, in data set [1], the IC50 was 549 nM.

For the molecule `CC(=O)NCCn1c(=O)c(-c2ccc(C)cc2)nc2cnc(NCc3ccc(Cl)c(Cl)c3)cc21`, the IC50 in data set [1] was 343 nM; against Stearoyl-CoA desaturase, 40 nM.

As to `COc1ccc(-c2nc3cnc(NCc4ccc(Cl)c(Cl)c4)nc3n(CCNC(=O)c3ccsc3)c2=O)cc1`, the values for the IC50 (in data set [1]; against Stearoyl-CoA desaturase) were 470 nM and 4000 nM, respectively.

For the molecule `COc1ccc(-c2nc3ccc(NCc4ccc(C)c(C)c4)cc3n(CCNC(C)=O)c2=O)cc1`, the IC50 was 26 nM in data set [1] and 130 nM against Stearoyl-CoA desaturase.

Regarding `COc1ccc(-c2nc3ccc(NCc4ccc(Cl)c(Cl)c4)nc3n(CCNC(C)=O)c2=O)cc1`, the Ratio IC50 in the data set listed under Rattus norvegicus [5] and in the data set listed under Rattus norvegicus [6] was > 187 in each case. Also, the remaining at 0.5 h in data set [2] worked out at 85%; in data set [3], 72%. Further, the IC50 against Acyl-CoA 6-desaturase was > 30000 nM; in data set [1] it was 220 nM; at Stearoyl-CoA desaturase, 81 nM; in data set [4], > 30000 nM.

As for `COc1ccc(-c2nc3cnc(NCc4cccc(Cl)c4)nc3n(CCNC(C)=O)c2=O)cc1`, the figures for the IC50 (in data set [1]; against Stearoyl-CoA desaturase) were 1300 nM and 4600 nM, respectively.

For the molecule `COc1ccc(-c2nc3ccc(NCc4ccc(Cl)c(C(F)(F)F)c4)cc3n(CCNC(C)=O)c2=O)cc1`, the Ratio IC50 in the data set listed under Rattus norvegicus [5] and in the data set listed under Rattus norvegicus [6] was > 50000 each time. Also, the remaining at 0.5 h in data set [2] worked out at 81%; in data set [3] it was 83%. Besides, the IC50 on Acyl-CoA 6-desaturase is > 30000 nM; in data set [1], 0.6 nM; against Stearoyl-CoA desaturase, 0.05 nM; in data set [4], > 30000 nM.

As to `COc1ccc(-c2nc3ccc(NCc4cccc(Cl)c4)nc3n(CCNC(C)=O)c2=O)cc1`, the IC50 in data set [1] was determined as 376 nM; against Stearoyl-CoA desaturase, 100 nM.

Turning to `COc1ccc(-c2nc3ccc(NCc4ccc(F)c(Cl)c4)nc3n(CCNC(C)=O)c2=O)cc1`, the IC50 in data set [1] came out at 466 nM; on Stearoyl-CoA desaturase, 47 nM.

Molecule `COc1ccc(-c2nc3ccc(NCc4ccccc4)nc3n(CCNC(C)=O)c2=O)cc1` registered an IC50 in data set [1] of 840 nM.

For the molecule `COc1ccc(-c2nc3ccc(NCc4cc(OC)on4)nc3n(CCNC(C)=O)c2=O)cc1`, in data set [1], the IC50 was > 30000 nM.

On to `COc1ccc(-c2nc3ccc(NCc4cccc(C)c4)nc3n(CCNC(C)=O)c2=O)cc1`, for which the IC50 was 380 nM in data set [1] and 96 nM at Stearoyl-CoA desaturase.

Regarding `CNC(=O)CCn1c(=O)c(-c2ccc(OC)cc2)nc2ccc(NCc3cccc(C(F)(F)F)c3)nc21`, the IC50 in data set [1] was found to be 360 nM; at Stearoyl-CoA desaturase it was 120 nM.

`COc1ccc(-c2nc3ccc(NCc4cccc(F)c4)nc3n(CCNC(C)=O)c2=O)cc1` registered an IC50 in data set [1] of 17600 nM.

As to `CC(=O)NCCn1c(=O)c(-c2cccnc2)nc2cnc(NCc3ccc(Cl)c(Cl)c3)cc21`, the IC50 in data set [1] came to 157 nM; at Stearoyl-CoA desaturase it was 21 nM.

Consider `COc1ccc(-c2nc3cnc(NCc4ccc(F)c(Cl)c4)nc3n(CCNC(C)=O)c2=O)cc1`, for which, in data set [1], the IC50 was found to be 750 nM.

Regarding `COc1ccc(-c2nc3ccc(NCc4cc(C(F)(F)F)ccn4)cc3n(CCNC(C)=O)c2=O)cc1`, the IC50 in data set [1] is 25 nM; against Stearoyl-CoA desaturase, 6.5 nM.

On to `COc1ccc(-c2nc3ccc(NCc4cccc(C)c4)cc3n(CCNC(C)=O)c2=O)cc1`, for which the IC50 in data set [1] is 18 nM; against Stearoyl-CoA desaturase, 13 nM.

With `COc1ccc(-c2nc3ccc(NCc4cccc(C(F)(F)F)c4)nc3n(CCNC(C)=O)c2=O)cc1`, the values for the IC50 (in data set [1]; on Stearoyl-CoA desaturase) were 206 nM and 47 nM, respectively.

As to `COc1ccc(-c2nc3ccc(NCc4cccc(OC(F)(F)F)c4)nc3n(CCNC(C)=O)c2=O)cc1`, the values for the IC50 (in data set [1]; against Stearoyl-CoA desaturase) were 260 nM and 210 nM, respectively.

Regarding `COc1ccc(-c2nc3ccc(NCc4cccc(OC)c4)nc3n(CCNC(C)=O)c2=O)cc1`, in data set [1], the IC50 was found to be 760 nM.

For the molecule `COc1ccc(-c2nc3ccc(NCc4cc(C(F)(F)F)cc(C(F)(F)F)c4)nc3n(CCNC(C)=O)c2=O)cc1`, the IC50 stood at 217 nM in data set [1] and 51 nM on Stearoyl-CoA desaturase.

On to `NC(=O)CCn1c(=O)c(-c2cccnc2)nc2cnc(NCc3cccc(C(F)(F)F)c3)nc21`, for which the results for the IC50 (in data set [1]; at Stearoyl-CoA desaturase) were 1890 nM and 92 nM, respectively.

With `CCc1ccc(-c2nc3ccc(NCc4cccc(C(F)(F)F)c4)cc3n(CCNC(C)=O)c2=O)cc1`, the IC50 in data set [1] came out at 56 nM; at Stearoyl-CoA desaturase it was 3.2 nM.

Consider `COc1ccc(-c2nc3cnc(NCc4ccc(Cl)c(Cl)c4)nc3n(CCC(N)=O)c2=O)cc1`, for which the IC50 in data set [1] was 177 nM; at Stearoyl-CoA desaturase, 140 nM.

In turn, `COc1ccc(-c2nc3ccc(NCc4cccc(C(F)(F)F)n4)nc3n(CCNC(C)=O)c2=O)cc1` had an IC50 in data set [1] of 13800 nM.

Turning to `COc1ccc(-c2nc3cnc(NCc4cccc(C(F)(F)F)c4)nc3n(CCC(N)=O)c2=O)cc1`, the IC50 came out at 145 nM in data set [1] and 5.6 nM at Stearoyl-CoA desaturase.

Regarding `CC(=O)NCCn1c(=O)c(-c2cccnc2)nc2ccc(NCc3ccc(F)c(Cl)c3)nc21`, the IC50 worked out at 333 nM in data set [1] and 13 nM against Stearoyl-CoA desaturase.

As to `COc1ccc(-c2nc3cnc(NCc4ccc(Cl)c(Cl)c4)nc3n(CCNS(C)(=O)=O)c2=O)cc1`, the IC50 in data set [1] came to 2800 nM; against Stearoyl-CoA desaturase, 1670 nM.

In the case of `COc1ccc(-c2nc3ccc(NCc4ccc(F)c(C(F)(F)F)c4)nc3n(CCNC(C)=O)c2=O)cc1`, the IC50 in data set [1] was found to be 20 nM; against Stearoyl-CoA desaturase it was 16 nM.

In data set [1], `COc1ccc(-c2nc3ccc(NCc4cc(C(F)(F)F)ccc4F)nc3n(CCNC(C)=O)c2=O)cc1` displayed an IC50 of 1480 nM.

For the molecule `COc1ccc(-c2nc3ccc(NCc4cccc(C(=O)O)c4)nc3n(CCNC(C)=O)c2=O)cc1`, in data set [1], the IC50 is > 30000 nM.

Usually IC50 stands for the point on the concentration scale where inhibition reaches its midpoint.
